How the values were obtained:
[1] = test system: E. coli (ATCC 8739) / C. albicans (ATCC 10231); assay: MIC of permeabilizer co-dosants with and without Tgase variant; type: cell-based; conditions: for Co-Dosant MIC, with Tgase variant: with Tgase variant A3 (SEQ ID NO: 4): 12.5 ppm with polymyxin B, 200 ppm with chlorhexidine and with the mixture
Description: E. coli (ATCC 8739) and C. albicans (ATCC 10231) were acquired from the American Type Culture Collection (ATCC) (Manassas, VA) and maintained as −80° C. frozen glycerol stocks.
The following day, the cell density of the saturated cultures was calculated using OD600 and cultures were diluted to 104 to 10^6 CFU/mL in sterile Mueller Hinton broth to generate the inoculum, and 100 μL of the inoculum was combined with 100 μL of serially diluted Tgase variant A3 (SEQ ID NO: 4) at a range of 0.0001-0.05 weight percent. Growth curves were measured by OD600 on a BioTek® Synergy Plate Reader. All test conditions were performed in triplicate. MIC was determined to be […] (0.005% w/v) against E. coli for the enzyme described in SEQ ID NO: 4 using OD600.
For MIC determination of yeast cultures, C. albicans (ATCC 10231) was grown overnight (24 hours) in Sabouraud Dextrose broth at 30° C. The following day, the cell density of the saturated cultures was calculated using OD600 and cultures were diluted to 104 to 10^6 CFU/mL in sterile Sabouraud Dextrose broth media to generate the inoculum, and 100 μL of the inoculum was combined with 100 μL of serially diluted Tgase variant at a range of 0.0001-0.05 weight percent. The cultures were grown overnight at 30° C. and growth curves were measured by OD600 on a BioTek® Synergy Plate Reader. All test conditions were performed in triplicate. MIC was determined to be […] (0.005% w/v) against C. albicans for the enzyme described in SEQ ID NO: 4 using OD600.
Aseptilase activities of Tgase variant A3 (SEQ ID NO: 4) in combination with each of the three permeabilizer co-dosants, polymyxin B, chlorhexidine, and a 10000:4000:1 mixture by weight of sodium hexametaphosphate, phytic acid and chlorhexidine, were tested. […] The experiments were performed as described in Example 5. The co-dosants were added into Tgase variant A3 (SEQ ID NO: 4) solutions at concentrations of 0.125 g/L, 0.05 g/L, and 350 mM, respectively. The results are shown in Table 12 with Tgase concentrations reported within the table at the best MIC.

C. albicans = assay: Preservative efficacy in body lotion against C. albicans; type: cell-based; conditions: 0.005% in combinations, phenoxyethanol 0.7% alone, 0.3% combined, caprylyl glycol 0.7% alone, 0.35% combined, sodium benzoate 0.5% + EDTA 0.5%, 2% 2:1 propanediol:hexanediol, 0.5% CHA solution
Description: (§1) A vessel was filled with deionized water, placed under an overhead stirrer set to moderate mixing, and heated to 75-80° C. Glycerin was added to 2% and mixed until dissolved, followed by xanthan gum to 0.2%. At 75-80° C., cetearyl glucoside and cetearyl alcohol were added to 4% and 3%. Once both had melted fully, milk thistle seed oil was added and the batch was homogenized with a Silverson homogenizer with the standard emulsion screen until the batch had turned milky white. The batch was removed from heat and returned to propellor mixing with decreased speed to allow the emulsion to set up. At 40° C., pH was adjusted to pH 5.5-6.0 using citric acid or sodium hydroxide and split into several portions and allowed to finish cooling. Once cooled to room temperature, one portion of the body lotion was left unpreserved and the remaining portions were preserved with one or more substances selected from aseptilase, phenoxyethanol, caprylyl glycol, sodium benzoate, and EDTA. All samples were inoculated with E. coli (10^6 CFU/mL) and C. albicans (10^5 CFU/mL) and plated after 2 and 7 days.

E. coli = assay: Preservative efficacy in body lotion against E. coli; type: cell-based; conditions: 0.005% in combinations, phenoxyethanol 0.7% alone, 0.3% combined, caprylyl glycol 0.7% alone, 0.35% combined, sodium benzoate 0.5% + EDTA 0.5%, 2% 2:1 propanediol:hexanediol, 0.5% CHA solution
Description: as §1

collagen = assay: Collagen-modifying activity with FITC-gelatin or FITC-cadaverine; type: biochemical; conditions: 16 hours, pH 7.4
Description: Substrate specificity for collagen of Tgase variant A3 (SEQ ID NO: 4) was tested by allowing the variant to react with either fluorescein-labeled gelatin (FITC-Gelatin, to test protein-protein cross-linking) or fluorescein-labeled cadaverine (FITC-cadaverine, to test protein-small molecule cross-linking) with a collagen layer deposited on the bottom of a 96-well microtiter plate. Tgase variant A3 (SEQ ID NO: 4) and wild-type Tgase were diluted to 4-800 ppm in 50 mM phosphate buffer, pH 7.4, supplemented with 100 mM NaCl in 96-well collagen coated microtiter plates. Either FITC-gelatin or FITC-cadaverine was added to 1 g/L (final volume 100 μL) and the plates were sealed and incubated at either 37° C. or 50° C. for 16 hours. The reaction supernatants were carefully removed and then 200 μL 50 mM [COMPOUND LEFT OUT] mM NaCl, pH 7.4 buffer was added gently against the side of each well then carefully removed. This wash step was repeated. The plate-bound material was extracted by vigorously pipetting 100 μL dimethylsulfoxide into each well, then the extract was transferred into a black bottom 96-well plate. The fluorescence of the samples was measured at an excitation wavelength of 487 nm and an emission wavelength of 528 nm. The fluorescence signal is assumed to be proportionate to the concentration of fluorescent product extracted from the surface of the plate. For both FITC-gelatin and FITC-cadaverine, the fluorescence response per concentration enzyme was higher for wells treated with Tgase variant A3 (SEQ ID NO: 4) than for wells treated with wild-type Tgase (Table 11).

[2] = Thermal stability at 55 °C, specific activity by colorimetric hydroxamate assay; type: biochemical
Description: Tgase activity was measured herein using a colorimetric hydroxamate activity assay (Folk and Cole (1965) J Biol Chemistry 240 (7): 2951-2960). Briefly, the hydroxamate assay uses N-benzyloxycarbonyl-L-glutaminyl-glycine (ZQG) as a low molecular weight amine acceptor substrate and hydroxylamine as an amine donor. In the presence of catalytically active Tgase, the hydroxylamine is incorporated to form Z-glutamylhydroxamate-glycine, which develops a colored complex with iron (III), detectable at 525 nm after incubation at 37° C. for 5-200 minutes. The calibration was performed using L-glutamic acid gamma-monohydroxamate (Millipore® Sigma®) as a standard. One unit of Tgase was defined as the amount of enzyme that catalyzes formation of 1 μmol of the peptide derivative of gamma-glutamylhydroxylamine per minute. Activity of Tgase variants is depicted in Tables 2-4.
A commercially available wild-type Tgase (Ajinimoto®, Activa® TI formulation) formulated at 0.75-1.0% enzyme in maltodextrin was purchased from Amazon.com and dissolved in water at 20% w/v. The concentration of the mature Tgase in the solution was confirmed by high-performance liquid chromatography (HPLC) and the sample was further diluted to 0.1 g/L of enzyme. Following dilution, the enzyme was subjected to the hydroxamate assay as described in Example 4 to determine specific activity. The specific activity of the commercial wild-type Tgase compared to Tgase variant A3 (SEQ ID NO: 4), further comprising an N-terminal methionine, is shown in FIG. 1.
The thermal stability of Tgase variant A3 (SEQ ID NO: 4) compared to the commercial wild-type Tgase was evaluated by incubating the samples at 55° C. and testing the enzyme concentration and activity at various timepoints. Six timepoints were tested: 0, 30, 60, 120, 240, and 480 minutes.
The enzyme concentration was measured by HPLC. The samples were diluted 10-fold in 50 mM phosphate pH 7.4, 100 mM NaCl. The samples were tested by reverse phase using a Zorbax SB300-C8 column with 0.1% trifluoroacetic acid in water (MPA) and 0.08% trifluoroacetic acid in acetonitrile (MPB).
The activity was determined using the colorimetric activity assay described in Example 4A. The specific activity (U/mg) of the samples was calculated using the concentration of each sample as determined per Example 4D (results shown in Table 10).

In the case of `[H]/N=C(\N/C(=N/[H])NCCCCCCNC(=N)NC(=N)Nc1ccc(Cl)cc1)Nc1ccc(Cl)cc1` [Chlorhexidine, reference compound], the MIC ([1]; read-out: Co-Dosant MIC, without Tgase variant) is reported as 2 µg/mL and the “Co-Dosant MIC, with Tgase variant” value [1] is reported as 1 ppm.

In the case of `CCCCCCC(O)CO` (stereo not shown) [caprylyl glycol], the “Preservative efficacy against C. albicans, log reduction” value (C. albicans; day 2, aseptilase 0.01% alone) is reported as 1.18 log reduction in CFU/mL, the “Preservative efficacy against C. albicans, log reduction” value (C. albicans; day 7, aseptilase 0.01% alone) is reported as 2.70 log reduction in CFU/mL and the “Preservative efficacy against E. coli, log reduction” value (E. coli; day 2, aseptilase 0.01% alone) is reported as 5.00 log reduction in CFU/mL. For the same molecule, the “Preservative efficacy against E. coli, log reduction” value (E. coli; day 7, aseptilase 0.01% alone) was 5.00 log reduction in CFU/mL.

For `OCCOc1ccccc1` [phenoxyethanol], the “Preservative efficacy against C. albicans, log reduction” value (C. albicans; day 2, aseptilase 0.01% alone) was 0.68 log reduction in CFU/mL, the “Preservative efficacy against C. albicans, log reduction” value (C. albicans; day 7, aseptilase 0.01% alone) was 1.73 log reduction in CFU/mL and the “Preservative efficacy against E. coli, log reduction” value (E. coli; day 2, aseptilase 0.01% alone) was 2.15 log reduction in CFU/mL. For the same molecule, the “Preservative efficacy against E. coli, log reduction” value (E. coli; day 7, aseptilase 0.01% alone) was 3.00 log reduction in CFU/mL.

With Polymyxin B [reference compound] the “Co-Dosant MIC, with Tgase variant” value [1] was 0.156 ppm and the “Co-Dosant MIC, without Tgase variant” value ([1]; without Tgase variant) was 0.625 ppm.

B1: Wild-type Tgase: commercially available wild-type Tgase (Ajinimoto, Activa TI formulation) formulated at 0.75-1.0% enzyme in maltodextrin (protein, UniProt P81453 77-407, looked up)
Protein-glutamine …: DSDDRVTPPAEPLDRMPDPYRPSYGRAETVVNNYIRKWQQVYSHRDGRKQQMTEEQREWLSYGCVGVTWVNSGQYPTNRLAFASFDEDRFKNELKNGRPRSGETRAEFEGRVAKESFDEEKGFQRAREVASVMNRALENAHDESAYLDNLKKELANGNDALRNEDARSPFYSALRNTPSFKERNGGNHDPSRMKAVIYSKHFWSGQDRSSSADKRKYGDPDAFRPAPGTGLVDMSRDRNIPRSPTSPGEGFVNFDYGWFGAQTEADADKTVWTHGNHYHAPNGSLGAMHVYESKFRNWSEGYSDFDRGAYVITFIPKSWNTAPDKVKQGWP
modifications: formulated in maltodextrin
In the case of B1, the “Fluorescence/[Enzyme]” value (collagen; FITC-Cadaverine, 37 °C) is reported as 6.7 RFU/ppm, the “Fluorescence/[Enzyme]” value (collagen; FITC-Cadaverine, 50 °C) is reported as 4.4 RFU/ppm and the “Fluorescence/[Enzyme]” value (collagen; FITC-Gelatin, 37 °C) is reported as 4.6 RFU/ppm. For the same molecule, the “Fluorescence/[Enzyme]” value (collagen; FITC-Gelatin, 50 °C) was 6.8 RFU/ppm, the Specific activity ([2]; timepoint 0 min) was 23.3 U/mg and the Specific activity ([2]; timepoint 30 min) was 31.0 U/mg. It also gave a Specific activity ([2]; timepoint 60 min) of 27.0 U/mg, a Specific activity ([2]; timepoint 120 min) of 29.3 U/mg and a Specific activity ([2]; timepoint 240 min) of 36.8 U/mg. It also gave a Specific activity ([2]; timepoint 480 min) of 21.2 U/mg.
